IC50 data for 7 compounds are collected here from patent US5098934A, “Method of relieving pain with mercaptoalkanamides” (Roussel Uclaf, priority 1983, dated 1992).

The target in this assay is T1, Enkephalinase (Rattus norvegicus, UniProt P07861).
T1 construct: from tissue; host or cells: rat striatum, membrane (particulate) fraction
T1 sequence (P07861 1-750): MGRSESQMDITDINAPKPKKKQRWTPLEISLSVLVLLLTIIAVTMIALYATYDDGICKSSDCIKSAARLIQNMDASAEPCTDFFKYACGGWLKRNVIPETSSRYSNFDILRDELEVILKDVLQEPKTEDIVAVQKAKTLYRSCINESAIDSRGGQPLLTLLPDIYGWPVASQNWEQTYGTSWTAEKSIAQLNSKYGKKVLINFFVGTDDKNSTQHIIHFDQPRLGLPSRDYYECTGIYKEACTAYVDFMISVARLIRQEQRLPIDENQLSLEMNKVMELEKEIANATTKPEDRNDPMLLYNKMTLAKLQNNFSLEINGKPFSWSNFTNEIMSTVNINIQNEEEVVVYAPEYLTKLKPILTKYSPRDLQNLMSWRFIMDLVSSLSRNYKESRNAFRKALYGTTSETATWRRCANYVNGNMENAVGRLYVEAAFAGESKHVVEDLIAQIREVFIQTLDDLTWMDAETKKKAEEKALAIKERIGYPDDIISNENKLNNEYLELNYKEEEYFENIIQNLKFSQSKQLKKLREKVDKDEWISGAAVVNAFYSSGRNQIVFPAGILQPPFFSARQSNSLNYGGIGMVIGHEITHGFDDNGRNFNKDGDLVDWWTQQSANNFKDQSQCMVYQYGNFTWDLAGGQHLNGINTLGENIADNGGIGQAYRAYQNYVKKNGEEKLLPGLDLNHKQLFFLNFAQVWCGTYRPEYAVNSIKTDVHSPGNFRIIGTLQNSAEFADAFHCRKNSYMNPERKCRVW
Kind of assay: Inhibition of enkephalinase (rat striatum membrane fraction, tritiated leucine-enkephaline). Format: biochemical, rats. The note with it: 20 nanomole tritiated leucine-enkephaline, 1 mM puromycin, 25° C., 15 minutes, pH 7.4, read-out: Enkaphalinase inhibition CI50 (50% inhibitory concentration). On the procedure: Enkephalinase activity was determined in a striatum membrane fraction of rats. The striatum was placed in ice and was homogenized in buffered 0.05M Tris with a pH of 7.4 (20 times the volume) and after a first centrifugation at 1000 g, the particular fraction obtained was subjected to two centrifugations for 10 minutes at 20,000 g. The culot was then suspended in buffered Tris and kept at 4° C. The amount of proteins was determined by the Comassie blue method.
After preincubation at 25° C. for 15 minutes, an aliquot of proteins was incubated at 25° C. for 15 minutes in the presence of 20 nanomole of tritiated leucine-enkephaline (against the first amino acid) previously purified, of 1 mM of puromycin and the test product in buffered Tris. The hydrolysis reaction was stopped by addition of 0.2N hydrochloric acid and the incubate was subjected to a deproteinization by heating at 95° C. for 15 minutes. Under these conditions, the kinetic reaction was linear. The tritiated metabolites obtained by hydrolysis were separated from enkephaline by chromatography over a column of porapak Q and elution with buffered Tris whereby enkephaline was retained in the column and was released in the following ethanolic phase. The activity of the different products was expressed in 50% inhibitory concentration called CI50 in Table II.
Take `CC(=O)SCC(Cc1ccccc1)C(=O)Nc1ccccc1` (stereo not drawn) [Example 1, Ethanethioate of S-[3-oxo-3-phenylamino-2-benzyl-propyl]]: the IC50 was determined as 10 µM.
As for `O=C(Nc1ccccc1)C(CS)Cc1ccccc1` (stereo not drawn) [Example 2, α-mercaptomethyl-N-phenyl-benzene propanamide], the IC50 came out at 1 µM.
As to `CC(=O)SCC(Cc1ccccc1)C(=O)Nc1ccc(Cl)cc1` (stereo not drawn) [Example 3, Ethanethioate of S-[3-(4-chlorophenylamino)-3-oxo-2-benzylpropyl]], the IC50 was 1 µM.
On to `O=C(Nc1ccc(Cl)cc1)C(CS)Cc1ccccc1` (stereo not drawn) [Example 4, N-(4-chlorophenyl)-α-mercaptomethyl-benzene-propanamide], for which the IC50 was determined as 1 µM.
On to `O=C(Nc1ccncc1)C(CS)Cc1ccccc1` (stereo not drawn) [Example 30, N-(4-pyridinyl) α-(mercaptomethyl)-benzene-propanamide], for which the IC50 was found to be 0.1 µM.
For `COc1ccc(NC(=O)C(CS)Cc2ccccc2)cc1` (stereo not drawn) [Example 36, N-(4-methoxyphenyl) α-(mercaptomethyl)-benzene-propanamide], the IC50 came to 0.05 µM.
Under `COc1cccc(NC(=O)C(CS)Cc2ccccc2)c1` (stereo not drawn) [Example 38, N-(3-methoxyphenyl) α-(mercaptomethyl)-benzene-propanamide] stands 0.06 µM.
